In paper PMC5578599, “Programmed cell death in Acanthamoeba castellanii Neff induced by several molecules present in olive leaf extracts” (PLoS ONE, 2017):
Values after ≈ are worked out from the molar mass of the structure shown. “Also recorded” adds a separate entry of the source. Where two headings read alike, the source gives them in different places. Values belong to the compound of their own block, whether it stands above or below them.

What was measured:
CLC-51, genotype T1 = test: Alamar Blue assay against the trophozoite stage, clinical isolate CLC-51; format: cell-based; details: Acanthamoeba, trophozoites, IC50/96 h
Experimental: (§1) The strains used in this study included a type strain: Acanthamoeba castellanii Neff (ATCC 30010), and two clinical isolates, CLC-16, genotype T3; and CLC-51, genotype T1, which were isolated in a previous study. The strains were axenically grown in PYG medium (0.75% (w/v) proteose peptone, 0.75% (w/v) yeast extract and 1.5% (w/v) glucose) containing 40 μg/ml of gentamicin (Biochrom AG, Cultek, Granollers, Barcelona, Spain).
(§2) The anti-Acanthamoeba activities of the tested molecules were determined using the Alamar Blue® assay as previously described. Briefly, Acanthamoeba strains were seeded in duplicate on a 96-well microtiter plates with 50μl from a stock solution of 10^4 cells/ml. Amoebae were left to adhere for 15 min process which was checked using a Leika DMIL inverted microscope (Leika, Wetzlar, Germany). After that, 50 μl of serial dilutions of the molecules to be evaluated were added to the wells (In all tests, 1% DMSO was used to dissolve the highest dose of the compounds without inducing any effects on the parasites). Finally the Alamar Blue Reagent® (Life Technologies, Madrid, Spain) was placed into each well at an amount equal to 10% of the final volume. Test plates containing Alamar Blue were then incubated for 120 h at 28°C with a slight agitation.
(§3) Subsequently the plates were analyzed, during an interval of time between 72 and 144 h, on an EnSpire® Multimode Plate Reader (Perkin Elmer, Madrid, Spain) using a test wavelength of 570 nm and a reference wavelength of 630 nm. Percentages of growth inhibition, 50% and 90% inhibitory concentrations (IC50 and IC90) were calculated by linear regression analysis with 95% confidence limits. All experiments were performed three times, and the mean values were also calculated.

CLC-16, genotype T3 = test: Alamar Blue assay against the trophozoite stage, clinical isolate CLC-16; format: cell-based; details: Acanthamoeba, trophozoites, IC50/96 h
Experimental: as §1, §2, §3

macrophages J774.A1 = test: LDH release cytotoxicity test; format: cell-based, murine; details: for Cytotoxicity level at the IC50 against Acanthamoeba / Cytotoxicity level at the IC90 against Acanthamoeba: J774A.1 murine macrophages, 24 hours, LDH release; for Cytotoxicity level at the IC50 against Acanthamoeba: compound at its IC50; for Cytotoxicity level at the IC90 against Acanthamoeba: compound at its IC90
Experimental: A commercial kit was used for the evaluation of the induced cytotoxic effects of tested compounds based on the measurement of lactate dehydrogenase (LDH) quantity released to the media (LDH Cytotoxicity Detection Kit, Roche Applied Science, Madrid, Spain), following the manufacturer's instructions. Briefly, the macrophages J774.A1 (ATCC # TIB-67) were incubated with different concentrations of the tested compounds for 24 hours in duplicate. After incubation, supernatants were obtained and LDH levels were determined following manufacturer′s instructions. To determine the cytotoxicity percentages, the average absorbance values of the duplicates were calculated and compared with negative and positive controls. Cytotoxic levels were determined as previously described.

[1] = tested on: Acanthamoeba castellanii Neff (ATCC 30010); test: Alamar Blue assay against the trophozoite stage, A. castellanii Neff; format: cell-based; details: IC50/96 h; for IC50: Acanthamoeba castellanii, ATCC30010, trophozoites; for IC50 A. Neff: trophozoites
[2] = tested on: Acanthamoeba castellanii Neff (ATCC 30010); test: as above; format: cell-based; details: for IC90: ATCC30010, trophozoites, Alamar Blue
Experimental: as §1, §2, §3

A. Neff membrane = test: SYTOX Green plasma membrane permeability; format: cell-based, Acanthamoeba castellanii; details: IC90, SYTOX Green, relative to Triton X-100 positive control
Experimental: The SYTOX® Green assay was performed to detect membrane permeability alterations on the parasites. Briefly, 10^5 amoebae/ml were incubated with the SYTOX® Green at a final concentration of 1 μM (Molecular Probes®) for 30 min in the dark at 26°C. Subsequently, parasites were disposed to black plates and the tested compounds were added at the IC90. The increase in fluorescence due to binding of the fluorescent marker to the amoebic DNA was measured using an EnSpire® Multimode Plate Reader (Perkin Elmer, Madrid, Spain) with excitation wavelength of 504 nm and emission wavelength at 523 nm, and expressed as percentage relative to full permeabilized cells achieved by the addition of 0.1% Triton X-100 [17–19].

A. Neff = test: JC-1 mitochondrial membrane potential; format: cell-based, Acanthamoeba castellanii; details: IC90, 24 hours
Experimental: The ΔΨm was measured using JC-1 Mitochondrial Membrane Potential Assay Kit (Cayman Chemical, Vitro, Madrid, Spain). This lipophilic cationic probe accumulates in the mitochondrial matrix according to the membrane potential. In healthy cells with a high ΔΨm, JC-1 spontaneously forms complexes known as J-aggregates, showing intense red fluorescence (emission at 595 nm). […] In brief, amoebae, after 24 hours of incubation with different concentrations of the tested compounds, were harvested and washed with buffer. The cells were then incubated at 26°C for 30 minutes with JC-1 dye. Cells were then analyzed by fluorescence measurement in black plates through spectrofluorometer using 490 nm as excitation wavelength. Data presented here are representative of three experiments. The ratio of the reading at 595 nm to the reading at 535 nm was considered as the relative ΔΨm value.

[3] = tested on: Acanthamoeba castellanii Neff; test: Annexin-V/PI image-based cytometry for apoptosis; format: cell-based; details: treated with IC90, 24 h
Experimental: Annexin-V/propidium iodide (PI) double staining assay was performed using the Tali® Apoptosis Kit—Annexin V Alexa Fluor® 488 & Propidium Iodide according to the manufacturer's instructions (Life Technologies, Madrid, Spain). […] After that, cells were centrifuged and resuspended in ABB containing 1 μl of PI and incubated for 3 min at room temperature. Finally, 25 μl of the stained cells were loaded into a Tali® Cellular Analysis Slide and were analysed in the Tali® Image-Based Cytometer. Data were collected using the Tali® data acquisition and analysis software (Life Technologies, Madrid, Spain).

SMILES: O=c1cc(-c2ccc(O)cc2)oc2cc(O)cc(O)c12 [Apigenine]
IC50 (CLC-51, genotype T1): 20.2 ± 0.73 µg/mL (≈ 74.6 µM)
IC50 (CLC-16, genotype T3): 57 ± 2.68 µg/mL (≈ 211 µM)
Cytotoxicity level at the IC50 against Acanthamoeba (macrophages J774.A1): high cytotoxicity (abve 40% correspond to high cytotoxicity)
Cytotoxicity level at the IC90 against Acanthamoeba (macrophages J774.A1): high cytotoxicity (abve 40% correspond to high cytotoxicity)
IC50 [1]: 6.59 ± 0.39 µg/mL (≈ 24.4 µM)

IC50 [1]: > 100 µg/mL
SMILES: O=C(O)/C=C/c1ccc(O)c(O)c1 [Caffeic acid]

IC50 A. Neff [1]: >100 µg/mL
SMILES: O.Oc1cc(O)c2c(c1)O[C@H](c1ccc(O)c(O)c1)[C@@H](O)C2 [Catechin hydrate]

IC50 [1]: > 100 µg/mL
SMILES: O=C(/C=C/c1ccc(O)c(O)c1)O[C@@H]1C[C@](O)(C(=O)O)C[C@@H](O)[C@H]1O [Chlorogenic acid]

IC50 [1]: 67.4 ± 3.59 µg/mL (≈ 223 µM)
SMILES: O=c1oc2c(O)c(O)cc3c(=O)oc4c(O)c(O)cc1c4c23 [Ellagic acid]

IC50 A. Neff [1]: 62.03 ± 1.78 µg/mL (≈ 319 µM)
SMILES: COc1cc(/C=C/C(=O)O)ccc1O [Ferulic acid]

IC50 [1]: > 100 µg/mL
SMILES: O=C(O)c1cc(O)c(O)c(O)c1 [Gallic acid]

IC50 [1]: > 100 µg/mL
SMILES: OCCc1ccc(O)c(O)c1 [Hydroxytyrosol]

SMILES: O=c1cc(-c2ccc(O)c(O)c2)oc2cc(O[C@@H]3O[C@H](CO)[C@@H](O)[C@H](O)[C@H]3O)cc(O)c12 [Luteolin 7-o-glucoside]
IC50 A. Neff [1]: 61.98 ± 3.93 µg/mL (≈ 138 µM)

SMILES: O=c1cc(-c2ccc(O)c(O)c2)oc2cc(O)cc(O)c12 [Luteolin]
IC50 (CLC-51, genotype T1): 26.6 ± 1.75 µg/mL (≈ 93 µM)
IC50 (CLC-16, genotype T3): 83.1 ± 0.89 µg/mL (≈ 290 µM)
IC50 [1]: 28 ± 1.73 µg/mL (≈ 97.7 µM)

SMILES: CC1(C)CC[C@]2(C(=O)O)CC[C@]3(C)C(=CC[C@@H]4[C@@]5(C)C[C@@H](O)[C@H](O)C(C)(C)[C@@H]5CC[C@]43C)[C@@H]2C1 [Maslinic acid]
IC50 ([2]; ATCC30010, read-out: IC50 A. Neff): 30.9 ± 1.33 µg/mL (≈ 65.3 µM)

SMILES: CC1(C)CC[C@]2(C(=O)O)CC[C@]3(C)C(=CC[C@@H]4[C@@]5(C)CC[C@H](O)C(C)(C)[C@@H]5CC[C@]43C)[C@@H]2C1 [Oleanolic acid]
IC50 [1]: 43.7 ± 3.34 µg/mL (≈ 95.6 µM)

IC50 [1]: 57.5 ± 4.32 µg/mL (≈ 106 µM)
SMILES: C/C=C1/[C@H](O[C@@H]2O[C@H](CO)[C@@H](O)[C@H](O)[C@H]2O)OC=C(C(=O)OC)[C@H]1CC(=O)OCCc1ccc(O)c(O)c1 [Oleuropein]

IC50 A. Neff [1]: 36.05 ± 1.31 µg/mL (≈ 234 µM)
SMILES: O=C(O)c1ccc(O)c(O)c1 [Protochatechuic acid]

SMILES: O=c1c(O)c(-c2ccc(O)c(O)c2)oc2cc(O)cc(O)c12 [Quercetin hydrate]
IC50 [1]: > 100 µg/mL

SMILES: C[C@@H]1O[C@@H](OC[C@H]2O[C@@H](Oc3c(-c4ccc(O)c(O)c4)oc4cc(O)cc(O)c4c3=O)[C@H](O)[C@@H](O)[C@@H]2O)[C@H](O)[C@H](O)[C@H]1O [Rutin]
IC50 [1]: 61.4 ± 5.44 µg/mL (≈ 101 µM)

SMILES: COc1cc(C(=O)O)cc(OC)c1O [Syringic acid]
IC90 [2]: 119 µg/mL (≈ 602 µM)
IC50 (CLC-51, genotype T1): 63.07 ± 0.56 µg/mL (≈ 318 µM)
IC50 (CLC-16, genotype T3): 51.5 ± 2.41 µg/mL (≈ 260 µM)
Cytotoxicity (in words) (macrophages J774.A1; J774A.1 macrophages, Fig 2): lowest toxic levels
Cytotoxicity level at the IC50 against Acanthamoeba (macrophages J774.A1): low cytotoxicity (Values between 10 and 25% correspond to low cytotoxicity)
Cytotoxicity level at the IC90 against Acanthamoeba (macrophages J774.A1): low cytotoxicity (Values between 10 and 25% correspond to low cytotoxicity)
Plasma membrane permeabilization (A. Neff membrane): induced the higher permeabilization; also recorded: caused plasma membrane permeability
Decrease of the membrane potential (ΔΨm) (A. Neff): 68%
IC50 [1]: 22.9 ± 2.14 µg/mL (≈ 116 µM)

IC50 [1]: 63.77 ± 0.34 µg/mL (≈ 462 µM)
SMILES: OCCc1ccc(O)cc1 [Tyrosol]

IC90 [2]: 119 µg/mL (≈ 261 µM)
IC50 A. Neff [1]: 23.94 ± 1.14 µg/mL (≈ 52.4 µM)
SMILES: C[C@H]1[C@H](C)CC[C@]2(C(=O)O)CC[C@]3(C)C(=CC[C@@H]4[C@@]5(C)CC[C@H](O)C(C)(C)[C@@H]5CC[C@]43C)[C@H]12 [Ursolic acid]
IC50 (CLC-51, genotype T1): 28 ± 2.26 µg/mL (≈ 61.2 µM)
IC50 (CLC-16, genotype T3): 55 ± 1.21 µg/mL (≈ 120 µM)
Percentage of apoptotic cells [3]: 26%
Decrease of the membrane potential (ΔΨm) (A. Neff): 80%

SMILES: COc1cc(C(=O)O)ccc1O [Vanillic acid]
IC90 [2]: 133 µg/mL (≈ 789 µM)
IC50 (CLC-51, genotype T1): 61.7 ± 4.43 µg/mL (≈ 367 µM)
IC50 (CLC-16, genotype T3): 65.4 ± 0.89 µg/mL (≈ 389 µM)
Cytotoxicity level at the IC50 against Acanthamoeba (macrophages J774.A1): low cytotoxicity (Values between 10 and 25% correspond to low cytotoxicity)
Plasma membrane permeabilization (A. Neff membrane): induced the higher permeabilization; also recorded: caused plasma membrane permeability
Decrease of the membrane potential (ΔΨm) (A. Neff): 68%
IC50 [1]: 34.7 ± 1.32 µg/mL (≈ 206 µM)

SMILES: COc1cc(C=O)ccc1O [Vanillin]
IC90 [2]: 123 µg/mL (≈ 810 µM)
IC50 (CLC-51, genotype T1): 37.2 ± 2.85 µg/mL (≈ 244 µM)
IC50 (CLC-16, genotype T3): 58.1 ± 3.77 µg/mL (≈ 382 µM)
Cytotoxicity level at the IC50 against Acanthamoeba (macrophages J774.A1): low cytotoxicity (Values between 10 and 25% correspond to low cytotoxicity)
Plasma membrane permeabilization (A. Neff membrane): caused plasma membrane permeability
Decrease of the membrane potential (ΔΨm) (A. Neff): 36%
IC50 [1]: 25.6 ± 2.1 µg/mL (≈ 168 µM)

IC50 [1]: > 100 µg/mL
SMILES: C[C@@H]1O[C@@H](O[C@@H]2[C@@H](O)[C@H](OCCc3ccc(O)c(O)c3)O[C@H](CO)[C@H]2OC(=O)/C=C/c2ccc(O)c(O)c2)[C@H](O)[C@H](O)[C@H]1O [Verbascoside]

IC50 A. Neff [1]: 65.75 ± 3.97 µg/mL (≈ 401 µM)
SMILES: O=C(O)/C=C/c1cccc(O)c1 [m-coumaric acid]

IC50 [1]: 72.19 ± 0.19 µg/mL (≈ 440 µM)
SMILES: O=C(O)/C=C/c1ccc(O)cc1 [p-coumaric acid]
